Molecules are shown by their SMILES. pKi: −log10 of the molar value.

We go through 5 molecules from patent publication US7241893B2, “Thiazolinone 2-substituted quinolines” (Hoffman-La Roche Inc., priority 2004, dated 2007).

T1 sequence (P06493 whole entry): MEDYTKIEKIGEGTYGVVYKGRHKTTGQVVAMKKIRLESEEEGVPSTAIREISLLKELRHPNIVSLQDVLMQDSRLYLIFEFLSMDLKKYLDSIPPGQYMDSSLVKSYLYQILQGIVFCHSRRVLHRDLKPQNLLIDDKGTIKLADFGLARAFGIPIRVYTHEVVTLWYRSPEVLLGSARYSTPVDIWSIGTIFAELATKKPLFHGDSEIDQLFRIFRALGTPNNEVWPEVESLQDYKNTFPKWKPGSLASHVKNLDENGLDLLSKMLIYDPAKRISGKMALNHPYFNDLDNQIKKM
T1 sequence (P14635 whole entry partner): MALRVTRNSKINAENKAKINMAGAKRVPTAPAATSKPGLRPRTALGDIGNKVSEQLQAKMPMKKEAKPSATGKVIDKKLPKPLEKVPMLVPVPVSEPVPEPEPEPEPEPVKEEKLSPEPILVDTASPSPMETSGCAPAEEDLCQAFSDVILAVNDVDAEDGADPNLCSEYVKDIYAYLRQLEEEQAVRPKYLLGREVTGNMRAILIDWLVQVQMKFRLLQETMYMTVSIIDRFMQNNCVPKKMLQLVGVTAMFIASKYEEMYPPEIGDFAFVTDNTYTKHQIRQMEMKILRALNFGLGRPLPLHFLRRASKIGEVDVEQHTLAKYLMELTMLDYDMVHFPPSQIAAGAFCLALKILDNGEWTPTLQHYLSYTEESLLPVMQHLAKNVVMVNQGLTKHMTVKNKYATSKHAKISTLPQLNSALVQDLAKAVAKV

This assay concerns the target T1, recombinant human CDK1/Cyclin B complex (Homo sapiens, UniProt P06493).
T1 construct: made in house; host or cells: High Five insect cells (baculovirus) for CDK1/GST-cyclin B; E. coli M15 for the Rb substrate
The experiment in a line: CDK1/Cyclin B kinase assay (FlashPlate or HTRF). It is filed as biochemical. The following applies: Rb protein substrate, Ki=IC50/(1+[S]/Km). Here is the method:
To determine inhibition of CDK1 activity, either FlashPlate™ (NEN™-Life Science Products) assay or HTRF assay was performed. Both types of kinase assays were carried out using recombinant human CDK1/Cyclin B complex. GST-cyclinB (GST-cycB) and CDK1 cDNA clones in baculovirus vectors were provided by Dr. W. Harper at the Baylor College of Medicine, Houston, Tex. Proteins were co-expressed in High Five™ insect cells and the complex was purified on glutathione Sepharose resin (Pharmacia, Piscataway, N.J.) as previously described (Harper, J. W. et al. Cell 1993, 75, 805–816). A 6x-Histidine tagged truncated form of retinoblastoma (Rb) protein (amino acid 386–928) was used as the substrate for the CDK1/Cyclin B assay (the expression plasmid was provided by Dr. Veronica Sullivan, Department of Molecular Virology, Roche Research Centre, Welwyn Garden City, United Kingdom). The Rb protein is a natural substrate for phosphorylation by CDK1 (see Herwig and Strauss Eur. J. Biochem. Vol. 246 (1997) pp. 581–601 and the references cited therein). The expression of the 62 Kd protein was under the control of an IPTG inducible promoter in an M15 E. coli strain. Cells were lysed by sonication and purification was carried out by binding lysates at pH 8.0 to a Ni-chelated agarose column pretreated with 1 mM imidazole. The resin was then washed several times with incrementally decreasing pH buffers to pH 6.0, and eluted with 500 mM imidazole. Eluted protein was dialysed against 20 mM HEPES pH 7.5, 30% glycerol, 200 mM NaCl, and 1 mM DTT. Purified Rb fusion protein stocks were quantitated for protein concentration, aliquoted, and stored at −70° C.
For the FlashPlate kinase assay, 96-well FlashPlates were coated with Rb protein at 10 μg/ml, using 100 μl per well. Plates were incubated at 4° C. overnight or at room temperature for 3 hours on a shaker. To control for nonspecific phosphorylation, one row of wells was coated with 100 μl/well coating buffer (20 mM HEPES, 0.2 M NaCl). Plates were then washed twice with wash buffer (0.01% Tween 20 in phosphate-buffered saline). Compounds to be tested (“test compounds”) were added to the wells at 5× final concentration. Reactions were initiated by immediate addition of 40 μl reaction mix (25 mM HEPES, 20 mM MgCl2, 0.002% Tween 20, 2 mM DTT, 1 [M ATP, 4 nM 33P-ATP) and a sufficient amount of enzyme to give counts that were at least 10-fold above background. Plates were incubated at room temperature on a shaker for 30 minutes. Plates were washed four times with the wash buffer, sealed, and counted on the TopCount scintillation counter (Packard Instrument Co., Downers Grove, Ill.]. The percent inhibition of Rb phosphorylation, which is a measure of the inhibition of CDK activity, was determined according to the following formula:
[formula] where “test compound” refers to the average counts per minute of the test duplicates, “nonspecific” refers to the average counts per minute when no CDK1/Cyclin B, etc., was added, and “total” refers to the average counts per minute when no compound was added. […] The value of the inhibitor constant Ki is calculated by the following: Ki=IC50/(1+[S]/Km), where [S] is the ATP concentration and Km is Michaelis constant.
The Homogeneous Time Resolved Fluorescence (HTRF) kinase assay was carried out in 96-well polypropylene plates (BD Biosciences, Bedford, Mass.). […]
Consider `Nc1ccc2cc(/C=C3\SC(N[C@@H]4C[C@H]4c4ccccc4)=NC3=O)ccc2n1` [Example 1, 5-[1-(2-Amino-quinolin-6-yl)-meth-(Z)-ylidene]-2-((1R,2S)-2-phenyl-cyclopropylamino)-thiazol-4-one; compound with trifluoro-acetic acid], for which the negative-log Ki (pKi) is 7.64.
Then `CCOc1cc(N)nc2ccc(/C=C3\SC(N)=NC3=O)cc12` [Example 3, 2-Amino-5-(2-amino-4-ethoxy-quinolin-6-ylmethylene)-thiazol-4-one], with 7.52; and `CCOc1cc(NC(C)=O)nc2ccc(/C=C3\SC(NC4CC4)=NC3=O)cc12` [Example 5, N-[6-(2-Cyclopropylamino-4-oxo-4H-thiazol-5-ylidenemethyl)-4-ethoxy-quinolin-2-yl]-acetamide], with 7.07.
Under `CCOc1cc(NC(C)=O)nc2ccc(/C=C3\SC(N)=NC3=O)cc12` [Example 7, N-(6-{2-Amino-4-oxo-4H-thiazol-5-ylidenemethyl}-4-ethoxy-quinolin-2-yl)-acetamide] stands 7.01; under `CCOc1cc(NC(C)=O)nc2ccc(/C=C3\SC(NCC4COCCO4)=NC3=O)cc12` (centres unmarked) [Example 9], 5.49.
